Test results: publication PMC4324968, “High-Affinity Accumulation of a Maytansinoid in Cells via Weak Tubulin Interaction” (PLoS ONE, 2015)

Assays:
[1] = biological target: T1, tubulin (αβ-heterodimer, bovine brain; maytansine site on β-tubulin); assay: equilibrium radioligand binding of 3H-S-methyl DM1 to tubulin-loaded liposomes (apparent Kd); parameters: species or system Bos taurus
T1 construct: with α-tubulin (αβ-heterodimer)

[2] = system: T2, tubulin (microtubule-assembled, in MCF7 cells); assay: 3H-paclitaxel equilibrium binding to MCF7 cells, Scatchard; type: cell-based
T2 construct: endogenous cellular tubulin in MCF7 cells; with αβ-heterodimer in microtubules

COc1cc2cc(c1Cl)N(C)C(=O)C[C@H](OC(=O)[C@H](C)N(C)C(=O)CCSC)[C@]1(C)O[C@H]1[C@H](C)[C@@H]1C[C@@](O)(NC(=O)O1)[C@H](OC)/C=C/C=C(\C)C2 [S-methyl DM1]
Kd [1]: 21.5 ± 0.07 nM

CC(=O)O[C@H]1C(=O)[C@@]2(C)[C@H]([C@H](OC(=O)c3ccccc3)[C@]3(O)C[C@H](OC(=O)[C@H](O)[C@@H](NC(=O)c4ccccc4)c4ccccc4)C(C)=C1C3(C)C)[C@]1(OC(C)=O)CO[C@@H]1C[C@@H]2O [paclitaxel]
Kd [2]: 60 ± 10 nM
